Target: cAMP and cAMP-inhibited cGMP 3',5'-cyclic phosphodiesterase 10A (Homo sapiens, UniProt Q9Y233)
Assay: PDE10A assay
How it was run: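 Scintillation proximity readout of [3H]cGMP hydrolysis (50 nM final substrate, 15 min) by 2 ng/well human PDE10A after 15 min compound preincubation at RT, pH 7.5 with MgCl2. Four-parameter logistic fit gave IC50, reported as pIC50.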

| SMILES | IC50 |
| --- | --- |
| Cn1nc(-c2ccc(C(F)(F)F)cn2)cc1NC(=O)c1c(C(=O)N2CCC2)cnn1C [Roche-Dataset for PDE10A, Compound 634] | 26 nM |
| Cn1nc(-c2ccccn2)cc1NC(=O)c1ccn(CC(F)(F)F)n1 [Roche-Dataset for PDE10A, Compound 662] | 10000 nM |
| Cc1cc(Cl)c(C)n2nc(CCc3nc(N4CCCC4)n(C)n3)nc12 [Roche-Dataset for PDE10A, Compound 374] | 0.47 nM |
| Cc1cc(C)n2nc(CCc3cncc(N4CCCC4)n3)nc2n1 [5,7-dimethyl-2-(2-(6-(pyrrolidin-1-yl)pyrazin-2-yl)ethyl)-[1,2,4]triazolo-[1,5-a]pyrimidine] | 307 nM |
| Cc1cnc(C)n2nc(CCc3nc(NCCCCl)nn3C)nc12 [Roche-Dataset for PDE10A, Compound 725] | 433 nM |
| Cc1cnc(C)n2nc(/C=C/c3nc(N4CCCC4)n(C)n3)nc12 [Roche-Dataset for PDE10A, Compound 443] | 20 nM |
| Cn1ncc(C(=O)NC2COC2)c1C(=O)N[C@@H]1CCn2cc(-c3ccccc3)nc2C1 [Roche-Dataset for PDE10A, Compound 302] | 181 nM |
| COc1nc(OCc2nc(-c3ccccc3)cn2C)nc2ccc(Cl)cc12 [Roche-Dataset for PDE10A, Compound 198] | 15 nM |
| Cn1ncc(C(=O)N2CCOCC2)c1C(=O)Nc1cn(-c2ccc3ccccc3n2)cn1 [Roche-Dataset for PDE10A, Compound 222] | 1.76 nM |
| CN(C)c1nc(OCc2nc(-c3ccccc3)cn2C)nc2ccc(Cl)cc12 [Roche-Dataset for PDE10A, Compound 89] | 3.68 nM |
| CN(C)C(=O)c1cnn(Cc2ccccc2)c1C(=O)Nc1ccn2nc(N3CCOCC3)nc2c1 [Roche-Dataset for PDE10A, Compound 1136] | 868 nM |
| Cc1noc(C(=O)Nc2cc(-c3ccccn3)nn2C)c1Br [Roche-Dataset for PDE10A, Compound 886] | 6220 nM |
| Cn1nc(-c2ccccn2)cc1NC(=O)c1c(C(=O)N2CCC2)cnn1C [Roche-Dataset for PDE10A, Compound 535] | 7.96 nM |
| Cc1c(C(F)(F)F)nc2ccc(C#Cc3nc(-c4ccccc4)cn3C)nn12 [Roche-Dataset for PDE10A, Compound 106] | 1.88 nM |
| Cn1cc(S(C)(=O)=O)c(C(=O)Nc2ccc3cc(-c4ccccc4)nn3c2)n1 [Roche-Dataset for PDE10A, Compound 416] | 88 nM |
| COCCOc1cc(Cl)c(C)n2nc(CCc3nc(N4CCCC4)nn3C)nc12 [Roche-Dataset for PDE10A, Compound 146] | 0.17 nM |
| Cn1ncc(C(=O)N2CCC2)c1C(=O)Nc1cn(-c2cnccn2)cn1 [Roche-Dataset for PDE10A, Compound 906] | 2440 nM |
| Cc1nc(-c2ccc(Cl)cc2)oc1C(=O)Nc1cc(-c2ccccn2)nn1C [Roche-Dataset for PDE10A, Compound 947] | 967 nM |
| COCCNC(=O)c1cc2[nH]c(-c3ccccc3)nc2cc1NC(=O)c1ccnnc1 [Roche-Dataset for PDE10A, Compound 306] | 35 nM |

| SMILES | IC50 |
| --- | --- |
| Cc1c(Cl)cc(Cl)c2nc(CCc3nncn3-c3ccccc3)nn12 [Roche-Dataset for PDE10A, Compound 582] | 72 nM |
| CNC(=O)c1cc2[nH]c(-c3ccccc3)nc2cc1NC(=O)c1cc(C)on1 [Roche-Dataset for PDE10A, Compound 557] | 189 nM |
| COc1c(Cl)ccc2nc(CCc3nc(-c4ccccc4)cn3C)[nH]c(=O)c12 [Roche-Dataset for PDE10A, Compound 123] | 33 nM |
| Cc1[nH]c(-c2ccncc2)nc1CCN1C(=O)c2ccccc2C1=O [Roche-Dataset for PDE10A, Compound 395] | 17400 nM |
| Cc1ncc(C)n2nc(CCc3nc(N4CCN(C(c5ccccc5)c5ccccc5)C4=O)nn3C)nc12 [Roche-Dataset for PDE10A, Compound 1145] | 4770 nM |
| Cc1c(Cl)cc(Cl)c2nc(CCc3cn4c(n3)SCC4)nn12 [Roche-Dataset for PDE10A, Compound 760] | 27 nM |
| CN(C)c1nc(CCc2nccn2-c2ccccc2)nc2ccccc12 [Roche-Dataset for PDE10A, Compound 326] | 587 nM |
| COc1ccc2c(c1)c(=O)n(C)c1c(C)nc(-c3ccccc3Cl)n21 [Roche-Dataset for PDE10A, Compound 965] | 7.7 nM |
| CCN(C)C(=O)c1cnn(C)c1C(=O)N[C@@H]1CCn2cc(-c3ccccc3)nc2C1 [Roche-Dataset for PDE10A, Compound 242] | 15 nM |
| Cc1ncc(C)n2nc(CCc3nc(Br)nn3C)nc12 [Roche-Dataset for PDE10A, Compound 1131] | 2480 nM |
| Cc1ncc(C)n2nc(CCc3nc(N4CC[C@@H](C)[C@H]4C)nn3C)nc12 [Roche-Dataset for PDE10A, Compound 392] | 43 nM |
| CN(C(=O)c1c(C(=O)N2CCC2)cnn1C)c1ccn2nc(-c3ccccc3)nc2c1 [Roche-Dataset for PDE10A, Compound 1062] | 1450 nM |
| Cc1c(Cl)cc(OC(C)C)c2nc(CCc3nc(N4CCCC4)nn3C)nn12 [Roche-Dataset for PDE10A, Compound 223] | 0.69 nM |
| Cc1ncc(C)n2nc(CCc3nc(N4CCCC4)nn3C)nc12 [Roche-Dataset for PDE10A, Compound 626] | 2.3 nM |
| Cc1ncc(C)n2nc(CCc3nc(N(C)CC4CC4)nn3C)nc12 [Roche-Dataset for PDE10A, Compound 841] | 117 nM |
| CN(CCF)C(=O)c1cnn(C)c1C(=O)N[C@@H]1CCn2cc(-c3ccccc3)nc2C1 [Roche-Dataset for PDE10A, Compound 190] | 205 nM |
| CC(C)CNC(=O)c1c(NC(=O)c2c(C(=O)N3CCC3)cnn2C)cnn1C [Roche-Dataset for PDE10A, Compound 1069] | 462 nM |
| CN1CCN(c2nc3cc(NC(=O)c4c(C(=O)N5CCC5)cnn4C)ccc3s2)CC1 [Roche-Dataset for PDE10A, Compound 546] | 392 nM |
| Cn1ncc(C(=O)N2CCOCC2)c1C(=O)N[C@@H]1CCn2cc(-c3ccccc3Cl)nc2C1 [Roche-Dataset for PDE10A, Compound 457] | 2410 nM |

Continued, values first:

| IC50 | SMILES |
| --- | --- |
| 21 nM | Cn1cnc(C(=O)N2CCC2)c1C(=O)Nc1ccn2nc(-c3ccccc3)nc2c1 [Roche-Dataset for PDE10A, Compound 183] |
| 768 nM | O=C(NCc1ccncn1)c1nc(C2CC2)cnc1Nc1cncnc1 [Roche-Dataset for PDE10A, Compound 1017] |
| 641 nM | O=C(O)c1cccnc1C(=O)Nc1ccn2nc(-c3ccccc3)nc2c1 [Roche-Dataset for PDE10A, Compound 381] |
| 50 nM | O=C(Nc1ccn(CCO)n1)c1nc(C2CC2)ccc1Nc1cncnc1 [Roche-Dataset for PDE10A, Compound 597] |
| 3.08 nM | Cc1oc(-c2ccccc2)nc1CCNC(=O)c1nc(C2CC2)cnc1Nc1cncnc1 [Roche-Dataset for PDE10A, Compound 202] |
| 10000 nM | O=C(NC1CCS(=O)(=O)CC1)c1nc(C2CC2)cnc1Nc1cncnc1 [Roche-Dataset for PDE10A, Compound 1031] |
| 26 nM | CCC(=O)c1cc(NC(=O)c2nc(C3CC3)cnc2Nc2cncnc2)ccc1O [Roche-Dataset for PDE10A, Compound 875] |
| 6.66 nM | O=C(Nc1ccn(CCCC(F)(F)F)n1)c1nc(C2CC2)ccc1Nc1cncnc1 [Roche-Dataset for PDE10A, Compound 485] |
| 38 nM | O=C(NCc1cn2ccsc2n1)c1nc(C2CC2)cnc1Nc1cncnc1 [Roche-Dataset for PDE10A, Compound 838] |
| 0.35 nM | Cn1ncc(C(=O)N2CCC2)c1C(=O)Nc1ccn2nc(-c3ccccc3OCCF)nc2c1 [Roche-Dataset for PDE10A, Compound 14] |
| 59 nM | O=C(NCc1cnn(-c2ccccc2)n1)c1nc(C2CC2)cnc1Nc1cncnc1 [Roche-Dataset for PDE10A, Compound 727] |
| 20 nM | Cc1nc(C(=O)N2CCC2)c(C(=O)Nc2ccn3nc(-c4ccccc4)nc3c2)n1C [Roche-Dataset for PDE10A, Compound 75] |
| 0.09 nM | O=C(Nc1cc(-c2ccc3ccccc3n2)nn1CCO)c1nc(C2CC2)ccc1Nc1cncnc1 [US8470820, 25] |
| 13 nM | O=C(Nc1ccccc1C(=O)C1CCCCC1)c1nc(C2CC2)cnc1Nc1cncnc1 [Roche-Dataset for PDE10A, Compound 667] |
| 0.32 nM | CNC(=O)c1c(F)cc(F)cc1NC(=O)c1nc(C2CC2)cnc1Nc1cncnc1 [US8703768, 299] |
| 0.64 nM | Cc1ncc(NC(=O)c2nc(C3CC3)cnc2Nc2cncnc2)c(C(=O)NCC(C)(C)O)n1 [US8703768, 281] |
| 1.43 nM | O=C(Nc1ccc(-c2ccccn2)s1)c1nc(C2CC2)ccc1Nc1cncnc1 [US8470820, 50] |
| 3.85 nM | O=C(Nc1cc(-c2ccccn2)no1)c1nc(C2CC2)ccc1Nc1cncnc1 [US8470820, 51] |
| 397 nM | Cn1cc(C(=O)Nc2ccn3cc(-c4ccccc4)nc3n2)c(C(=O)NCc2ccccn2)n1 [Roche-Dataset for PDE10A, Compound 1029] |
| 1040 nM | O=C(NC1CCCCCC1)c1nc(C2CC2)cnc1Nc1cncnc1 [Roche-Dataset for PDE10A, Compound 1154] |
| 551 nM | Cn1ncc(C(=O)N2CCC2)c1C(=O)Nc1ccn(CCF)n1 [Roche-Dataset for PDE10A, Compound 1082] |
| 10000 nM | Cc1ncc(C(=O)Nc2ccn3nc(-c4ccccc4)nc3c2)cn1 [Roche-Dataset for PDE10A, Compound 813] |
| 53 nM | CNC(=O)Cc1ccccc1NC(=O)c1nc(C2CC2)ccc1Nc1cncnc1 [Roche-Dataset for PDE10A, Compound 809] |
| 0.22 nM | CNC(=O)c1cn2cc(-c3ccccc3)nc2cc1NC(=O)c1nc(C2CC2)ccc1Nc1cncnc1 [Roche-Dataset for PDE10A, Compound 184] |
| 71 nM | CN1CCN(c2cccc(NC(=O)c3nc(C4CC4)cnc3Nc3cncnc3)c2)CC1 [Roche-Dataset for PDE10A, Compound 741] |
| 49 nM | O=C(Nc1ccnn1CCO)c1nc(C2CC2)ccc1Nc1cncnc1 [Roche-Dataset for PDE10A, Compound 860] |
